Measured values taken from US9611249B2, “1H-indazole-3-carboxamide compounds as glycogen synthase kinase 3 beta inhibitors” (AZIENDE CHIMICHE RIUNITE ANGELINI FRANCESCO A.C.R.A.F. …, priority 2012, dated 2017).

Key:
Assay type in all cases: biochemical
MAPKAPK2 (h) = MAPKAPK2 (h) (Homo sapiens (Human), UniProt P49137); assay: Kinase selectivity panel: MAPKAPK2 (h); settings: 10 μM in duplicate, read-out: % inhibition of control values
Experimental: (§1) (a) Compounds 1 and 2 were tested against a panel of 60 kinases in order to assess their selectivity. The assays were chosen taking into consideration the diversity of assay families.
(§2) Tested kinases were representative of following kinase sub-families: • protein-serine/threonine kinases; • protein-tyrosine kinases; • other kinases; and • atypical kinases.
(§3) Human recombinant kinases were incubated in the presence of specific peptide substrates plus ATP for different times (10, 15, 30, 60 or 90 minutes) at 22° C. Phosphorylated substrate was detected by LANCE or HTRF technology (CISBIO, MA, USA). The compounds were tested at 10 μM in duplicate.
(§4) The results are expressed as a percentage of inhibition of control specific activity obtained in the presence of the test compounds and are reported in the following Table 5.
(§5) (b) Compounds 3, 8, 29 and 31 were tested against the same panel of 60 kinases under the same conditions described above for compounds 1 and 2.
(§6) The results are expressed as a percent of inhibition of control specific activity obtained in the presence of the test compounds and are reported in the following Table 6.

NEK1 (h) = NEK1 (h) (Homo sapiens (Human), UniProt Q96PY6); assay: Kinase selectivity panel: NEK1 (h); settings: 10 μM in duplicate, read-out: % inhibition of control values
Experimental: as §1, §2, §3, §4, §5, §6

CHK1 (h) = CHK1 (h) (Homo sapiens (Human), UniProt O14757); assay: Kinase selectivity panel: CHK1 (h); settings: 10 μM in duplicate, read-out: % inhibition of control values
Experimental: as §1, §2, §3, §4, §5, §6

PKA (h) = PKA (h) (Homo sapiens (Human), UniProt P17612); assay: Kinase selectivity panel: PKA (h); settings: 10 μM in duplicate, read-out: % inhibition of control values
Experimental: as §1, §2, §3, §4, §5, §6

DAPK1 (h) = DAPK1 (h) (Homo sapiens (Human), UniProt P53355); assay: Kinase selectivity panel: DAPK1 (h); settings: 10 μM in duplicate, read-out: % inhibition of control values
DAPK1 (h), sequence (P53355 whole entry): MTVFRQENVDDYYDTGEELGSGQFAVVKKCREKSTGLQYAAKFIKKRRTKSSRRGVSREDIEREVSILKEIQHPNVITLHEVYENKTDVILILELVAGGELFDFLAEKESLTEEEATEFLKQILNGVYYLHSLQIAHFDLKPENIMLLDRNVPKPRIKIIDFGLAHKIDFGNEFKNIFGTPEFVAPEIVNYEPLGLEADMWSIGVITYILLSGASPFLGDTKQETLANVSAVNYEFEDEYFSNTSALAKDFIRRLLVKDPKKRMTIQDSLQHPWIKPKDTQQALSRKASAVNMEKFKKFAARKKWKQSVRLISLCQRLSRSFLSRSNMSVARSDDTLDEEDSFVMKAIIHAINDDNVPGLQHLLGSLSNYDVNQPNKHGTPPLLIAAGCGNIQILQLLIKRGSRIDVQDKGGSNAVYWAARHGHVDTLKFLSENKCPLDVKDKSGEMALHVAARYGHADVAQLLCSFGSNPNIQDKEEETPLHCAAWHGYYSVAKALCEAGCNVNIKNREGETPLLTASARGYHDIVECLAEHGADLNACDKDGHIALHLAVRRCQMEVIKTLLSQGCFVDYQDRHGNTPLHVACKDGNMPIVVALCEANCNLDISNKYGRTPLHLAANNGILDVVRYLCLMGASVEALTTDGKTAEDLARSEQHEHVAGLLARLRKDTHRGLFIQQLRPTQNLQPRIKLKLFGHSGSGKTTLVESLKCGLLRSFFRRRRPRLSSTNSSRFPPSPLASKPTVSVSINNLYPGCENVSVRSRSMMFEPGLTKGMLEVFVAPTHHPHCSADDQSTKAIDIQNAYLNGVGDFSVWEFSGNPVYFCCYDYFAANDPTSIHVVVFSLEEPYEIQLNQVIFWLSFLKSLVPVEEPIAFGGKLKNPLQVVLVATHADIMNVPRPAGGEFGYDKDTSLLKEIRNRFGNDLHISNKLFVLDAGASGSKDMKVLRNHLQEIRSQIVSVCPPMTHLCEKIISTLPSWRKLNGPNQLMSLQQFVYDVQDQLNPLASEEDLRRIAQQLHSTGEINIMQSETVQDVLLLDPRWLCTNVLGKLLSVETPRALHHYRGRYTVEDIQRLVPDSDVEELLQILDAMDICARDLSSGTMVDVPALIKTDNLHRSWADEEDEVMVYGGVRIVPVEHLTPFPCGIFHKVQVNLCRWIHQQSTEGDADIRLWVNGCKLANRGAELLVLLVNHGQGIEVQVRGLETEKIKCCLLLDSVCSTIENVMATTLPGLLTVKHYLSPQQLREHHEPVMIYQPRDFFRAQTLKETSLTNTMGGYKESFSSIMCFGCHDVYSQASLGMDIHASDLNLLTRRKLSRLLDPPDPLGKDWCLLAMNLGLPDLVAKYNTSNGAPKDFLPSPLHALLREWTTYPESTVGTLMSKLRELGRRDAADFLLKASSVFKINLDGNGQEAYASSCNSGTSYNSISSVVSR
Experimental: as §1, §2, §3, §4, §5, §6

MSK1 (h) = MSK1 (h) (Homo sapiens (Human), UniProt O75582); assay: Kinase selectivity panel: MSK1 (h); settings: 10 μM in duplicate, read-out: % inhibition of control values
Experimental: as §1, §2, §3, §4, §5, §6

Pim1 kinase (h) = Pim1 kinase (h) (Homo sapiens (Human), UniProt P11309); assay: Kinase selectivity panel: Pim1 kinase (h); settings: 10 μM in duplicate, read-out: % inhibition of control values
Experimental: as §1, §2, §3, §4, §5, §6

IRAK4 (h) = IRAK4 (h) (Homo sapiens (Human), UniProt Q9NWZ3); assay: Kinase selectivity panel: IRAK4 (h); settings: 10 μM in duplicate, read-out: % inhibition of control values
IRAK4 (h), sequence (Q9NWZ3 whole entry): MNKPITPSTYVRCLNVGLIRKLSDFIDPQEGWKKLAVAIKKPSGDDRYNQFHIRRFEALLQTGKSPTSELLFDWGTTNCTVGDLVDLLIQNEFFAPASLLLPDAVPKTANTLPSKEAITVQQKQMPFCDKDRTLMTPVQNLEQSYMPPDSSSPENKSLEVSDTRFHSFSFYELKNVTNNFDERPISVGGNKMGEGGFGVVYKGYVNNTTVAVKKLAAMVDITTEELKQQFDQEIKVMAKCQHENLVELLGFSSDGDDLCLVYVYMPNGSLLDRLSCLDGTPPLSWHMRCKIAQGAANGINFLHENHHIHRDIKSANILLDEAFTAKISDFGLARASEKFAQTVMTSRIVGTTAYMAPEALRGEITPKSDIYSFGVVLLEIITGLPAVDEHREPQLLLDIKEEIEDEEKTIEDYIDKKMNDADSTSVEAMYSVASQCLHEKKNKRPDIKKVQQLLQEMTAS
Experimental: as §1, §2, §3, §4, §5, §6

IKKalpha (h) = IKKalpha (h) (Homo sapiens (Human), UniProt O15111); assay: Kinase selectivity panel: IKKalpha (h); settings: 10 μM in duplicate, read-out: % inhibition of control values
Experimental: as §1, §2, §3, §4, §5, §6

PKCgamma (h) = PKCgamma (h) (Homo sapiens (Human), UniProt P05129); assay: Kinase selectivity panel: PKCgamma (h); settings: 10 μM in duplicate, read-out: % inhibition of control values
Experimental: as §1, §2, §3, §4, §5, §6

DCAMKL1 (h) = DCAMKL1 (h) (Homo sapiens (Human), UniProt O15075); assay: Kinase selectivity panel: DCAMKL1 (h); settings: 10 μM in duplicate, read-out: % inhibition of control values
DCAMKL1 (h), sequence (O15075 whole entry): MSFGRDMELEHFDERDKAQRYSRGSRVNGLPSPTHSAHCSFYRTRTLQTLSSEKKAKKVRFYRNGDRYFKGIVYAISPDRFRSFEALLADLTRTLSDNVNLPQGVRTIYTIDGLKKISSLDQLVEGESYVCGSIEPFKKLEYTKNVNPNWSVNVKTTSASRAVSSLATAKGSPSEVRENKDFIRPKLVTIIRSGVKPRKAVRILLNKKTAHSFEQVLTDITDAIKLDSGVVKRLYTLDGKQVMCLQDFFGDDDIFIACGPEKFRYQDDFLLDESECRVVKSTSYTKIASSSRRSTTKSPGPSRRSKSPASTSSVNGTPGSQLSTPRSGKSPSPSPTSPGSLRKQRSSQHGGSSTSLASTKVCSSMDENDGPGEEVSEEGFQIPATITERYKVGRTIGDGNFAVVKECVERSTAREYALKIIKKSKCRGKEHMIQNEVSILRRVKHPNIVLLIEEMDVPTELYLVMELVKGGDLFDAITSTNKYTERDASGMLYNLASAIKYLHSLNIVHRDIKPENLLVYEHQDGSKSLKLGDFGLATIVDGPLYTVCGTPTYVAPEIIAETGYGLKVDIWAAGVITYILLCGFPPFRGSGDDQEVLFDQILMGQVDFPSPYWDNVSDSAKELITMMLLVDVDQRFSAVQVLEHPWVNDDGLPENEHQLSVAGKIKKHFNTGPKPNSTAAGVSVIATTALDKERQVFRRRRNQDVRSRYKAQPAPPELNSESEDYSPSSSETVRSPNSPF
Experimental: as §1, §2, §3, §4, §5, §6

AurA/Aur2 kinase (h) = AurA/Aur2 kinase (h) (Homo sapiens (Human), UniProt O14965); assay: Kinase selectivity panel: AurA/Aur2 kinase (h); settings: 10 μM in duplicate, read-out: % inhibition of control values
Experimental: as §1, §2, §3, §4, §5, §6

ERK1 (h) = ERK1 (h) (Homo sapiens (Human), UniProt P27361); assay: Kinase selectivity panel: ERK1 (h); settings: 10 μM in duplicate, read-out: % inhibition of control values
ERK1 (h), sequence (P27361 whole entry): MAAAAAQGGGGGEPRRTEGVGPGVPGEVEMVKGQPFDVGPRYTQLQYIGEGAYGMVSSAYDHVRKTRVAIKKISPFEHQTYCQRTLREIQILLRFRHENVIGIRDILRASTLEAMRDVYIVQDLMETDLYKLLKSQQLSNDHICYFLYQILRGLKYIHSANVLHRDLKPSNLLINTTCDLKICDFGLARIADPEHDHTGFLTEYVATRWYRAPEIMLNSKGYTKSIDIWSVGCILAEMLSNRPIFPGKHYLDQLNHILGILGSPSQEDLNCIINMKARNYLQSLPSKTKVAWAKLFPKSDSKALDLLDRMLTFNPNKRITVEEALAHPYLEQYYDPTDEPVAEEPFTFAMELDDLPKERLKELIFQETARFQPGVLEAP
Experimental: as §1, §2, §3, §4, §5, §6

Src kinase (h) = Src kinase (h) (Homo sapiens (Human), UniProt P12931); assay: Kinase selectivity panel: Src kinase (h); settings: 10 μM in duplicate, read-out: % inhibition of control values
Src kinase (h), sequence (P12931 whole entry, looked up): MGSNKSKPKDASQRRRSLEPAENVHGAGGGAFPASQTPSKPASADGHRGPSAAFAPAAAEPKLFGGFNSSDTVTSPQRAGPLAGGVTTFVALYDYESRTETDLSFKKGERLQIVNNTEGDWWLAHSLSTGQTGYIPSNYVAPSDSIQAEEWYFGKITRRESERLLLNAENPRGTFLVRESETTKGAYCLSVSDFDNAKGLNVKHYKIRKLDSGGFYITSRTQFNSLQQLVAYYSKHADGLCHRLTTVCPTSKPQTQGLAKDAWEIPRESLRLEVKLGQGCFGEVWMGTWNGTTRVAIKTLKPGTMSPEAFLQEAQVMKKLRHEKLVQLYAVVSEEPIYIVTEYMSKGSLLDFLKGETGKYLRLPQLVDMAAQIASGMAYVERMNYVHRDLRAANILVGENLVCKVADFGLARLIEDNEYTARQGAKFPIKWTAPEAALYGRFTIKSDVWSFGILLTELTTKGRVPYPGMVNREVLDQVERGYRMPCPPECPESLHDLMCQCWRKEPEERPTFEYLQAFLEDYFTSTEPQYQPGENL
Experimental: as §1, §2, §3, §4, §5, §6

GSK3beta (h) = GSK3beta (h) (Homo sapiens (Human), UniProt P49841); assay: Kinase selectivity panel: GSK3beta (h); settings: GSK3beta (h); 10 μM in duplicate; read-out: % inhibition of control values
Experimental: as §1, §2, §3, §4, §6

FGFR4 kinase (h) = FGFR4 kinase (h) (Homo sapiens (Human), UniProt P22455); assay: Kinase selectivity panel: FGFR4 kinase (h); settings: 10 μM in duplicate, read-out: % inhibition of control values
Experimental: as §1, §2, §3, §4, §5, §6

smMLCK (h) (MYLK) = smMLCK (h) (MYLK) (Homo sapiens (Human), UniProt Q15746); assay: Kinase selectivity panel: smMLCK (h) (MYLK); settings: 10 μM in duplicate, read-out: % inhibition of control values
Experimental: as §1, §2, §3, §4, §5, §6

p38delta kinase (h) = p38delta kinase (h) (Homo sapiens (Human), UniProt O15264); assay: Kinase selectivity panel: p38delta kinase (h); settings: 10 μM in duplicate, read-out: % inhibition of control values
Experimental: as §1, §2, §3, §4, §5, §6

EphB4 kinase (h) = EphB4 kinase (h) (Homo sapiens (Human), UniProt P54760); assay: Kinase selectivity panel: EphB4 kinase (h); settings: 10 μM in duplicate, read-out: % inhibition of control values
Experimental: as §1, §2, §3, §4, §5, §6

mTOR kinase (h) (FRAP1) = mTOR kinase (h) (FRAP1) (Homo sapiens (Human), UniProt P42345); assay: Kinase selectivity panel: mTOR kinase (h) (FRAP1); settings: 10 μM in duplicate, read-out: % inhibition of control values
Experimental: as §1, §2, §3, §4, §5, §6

PhKgamma 2 (h) = PhKgamma 2 (h) (Homo sapiens (Human), UniProt P15735); assay: Kinase selectivity panel: PhKgamma 2 (h); settings: 10 μM in duplicate, read-out: % inhibition of control values
Experimental: as §1, §2, §3, §4, §5, §6

DYRK1a (h) = DYRK1a (h) (Homo sapiens (Human), UniProt Q13627); assay: Kinase selectivity panel: DYRK1a (h); settings: 10 μM in duplicate, read-out: % inhibition of control values
Experimental: as §1, §2, §3, §4, §5, §6

human GSK-3β = human GSK-3β (Homo sapiens (Human), UniProt P49841); assay: Activity on human GSK-3β, LANCE substrate phosphorylation assay; settings: for inhibition at 10 µM: in duplicate, first screening assay; for IC50: compounds 1 to 15, LANCE assay, five concentrations 100 μM to 10 nM
Experimental: Activity on human GSK-3β was assessed using the following methods (according to Meijer et al., Chem. Biol., 2003-10:1255-1266).
In a first screening assay, compounds were tested in duplicate at a concentration of 10 μM.
Human recombinant enzyme GSK-3β was incubated for 90 minutes at 22° C. in the presence of compounds or vehicle in a reaction buffer containing ATP plus 100 nM unphosphorylated specific substrate peptide (Ulight-[…] K-amide). Substrate phosphorylation was measured by LANCE technology (PerkinElmer, Conn., USA).
In a second assay, the same compounds were assayed at five concentrations ranging from 100 μM to 10 nM with ten-fold dilutions in duplicate.
The IC50 values (concentration causing a half maximal inhibition of control specific activity), reported in table 4, were determined by non-linear regression analysis of the inhibition curves generated with mean replicate values using Hill equation curve fitting.

GRK3/BARK2 (h) (ADRBK2) = GRK3/BARK2 (h) (ADRBK2) (Homo sapiens (Human), UniProt P35626); assay: Kinase selectivity panel: GRK3/BARK2 (h) (ADRBK2); settings: 10 μM in duplicate, read-out: % inhibition of control values
GRK3/BARK2 (h) (ADRBK2), sequence (P35626 whole entry): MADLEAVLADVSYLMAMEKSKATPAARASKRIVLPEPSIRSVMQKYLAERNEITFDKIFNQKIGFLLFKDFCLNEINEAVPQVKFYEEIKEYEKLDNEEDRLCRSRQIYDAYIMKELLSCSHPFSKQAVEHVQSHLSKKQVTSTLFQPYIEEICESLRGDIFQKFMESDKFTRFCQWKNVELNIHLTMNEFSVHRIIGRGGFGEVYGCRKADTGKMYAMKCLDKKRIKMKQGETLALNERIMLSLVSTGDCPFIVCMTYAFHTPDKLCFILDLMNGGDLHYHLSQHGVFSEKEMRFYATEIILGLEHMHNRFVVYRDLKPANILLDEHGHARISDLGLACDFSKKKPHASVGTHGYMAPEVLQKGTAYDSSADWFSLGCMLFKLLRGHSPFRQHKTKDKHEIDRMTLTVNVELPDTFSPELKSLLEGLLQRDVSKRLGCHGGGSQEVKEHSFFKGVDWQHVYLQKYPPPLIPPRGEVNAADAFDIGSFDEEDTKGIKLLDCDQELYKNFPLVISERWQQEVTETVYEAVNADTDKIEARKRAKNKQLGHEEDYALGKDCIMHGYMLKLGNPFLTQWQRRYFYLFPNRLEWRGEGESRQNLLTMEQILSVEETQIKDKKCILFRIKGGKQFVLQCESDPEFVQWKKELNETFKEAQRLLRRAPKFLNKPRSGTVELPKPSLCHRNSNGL
Experimental: as §1, §2, §3, §4, §5, §6

MEK1/MAP2K1 (h) = MEK1/MAP2K1 (h) (Homo sapiens (Human), UniProt Q02750); assay: Kinase selectivity panel: MEK1/MAP2K1 (h); settings: 10 μM in duplicate, read-out: % inhibition of control values
Experimental: as §1, §2, §3, §4, §5, §6

NEK7 (h) = NEK7 (h) (Homo sapiens (Human), UniProt Q8TDX7); assay: Kinase selectivity panel: NEK7 (h); settings: 10 μM in duplicate, read-out: % inhibition of control values
NEK7 (h), sequence (Q8TDX7 whole entry): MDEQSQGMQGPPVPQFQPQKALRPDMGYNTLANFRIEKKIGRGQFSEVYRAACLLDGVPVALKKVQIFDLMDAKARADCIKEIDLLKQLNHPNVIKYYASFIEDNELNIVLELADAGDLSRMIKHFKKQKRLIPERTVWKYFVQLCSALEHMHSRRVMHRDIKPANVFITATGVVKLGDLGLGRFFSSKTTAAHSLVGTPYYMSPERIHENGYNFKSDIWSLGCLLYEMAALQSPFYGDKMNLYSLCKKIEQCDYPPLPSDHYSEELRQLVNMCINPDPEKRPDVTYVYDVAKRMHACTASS
Experimental: as §1, §2, §3, §4, §5, §6

p38gamma kinase (h) = p38gamma kinase (h) (Homo sapiens (Human), UniProt P53778); assay: Kinase selectivity panel: p38gamma kinase (h); settings: 10 μM in duplicate, read-out: % inhibition of control values
Experimental: as §1, §2, §3, §4, §5, §6

ERK2 (h) (P42mapk) = ERK2 (h) (P42mapk) (Homo sapiens (Human), UniProt P28482); assay: Kinase selectivity panel: ERK2 (h) (P42mapk); settings: 10 μM in duplicate, read-out: % inhibition of control values
Experimental: as §1, §2, §3, §4, §5, §6

MAPKAPK2 (h), sequence (P49137 whole entry): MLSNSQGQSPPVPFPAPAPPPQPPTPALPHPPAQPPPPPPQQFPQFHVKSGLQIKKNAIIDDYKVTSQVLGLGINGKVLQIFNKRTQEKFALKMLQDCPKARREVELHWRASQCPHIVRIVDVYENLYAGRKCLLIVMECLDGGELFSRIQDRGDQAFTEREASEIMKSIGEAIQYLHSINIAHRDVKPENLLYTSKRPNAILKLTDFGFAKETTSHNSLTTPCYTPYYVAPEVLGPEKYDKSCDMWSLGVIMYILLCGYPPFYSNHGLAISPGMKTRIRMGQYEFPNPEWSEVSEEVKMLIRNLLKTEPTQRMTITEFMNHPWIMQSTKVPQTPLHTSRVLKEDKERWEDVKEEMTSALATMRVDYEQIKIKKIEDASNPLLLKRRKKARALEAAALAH

Row | inhibition at 10 µM (MAPKAPK2 (h)) [%] | inhibition at 10 µM (CHK1 (h)) [%] | inhibition at 10 µM (PKA (h)) [%] | inhibition at 10 µM (DAPK1 (h)) [%] | inhibition at 10 µM (Pim1 kinase (h)) [%] | inhibition at 10 µM (IRAK4 (h)) [%] | inhibition at 10 µM (IKKalpha (h)) [%] | inhibition at 10 µM (PKCgamma (h)) [%] | inhibition at 10 µM (DCAMKL1 (h)) [%] | inhibition at 10 µM (AurA/Aur2 kinase (h)) [%] | inhibition at 10 µM (ERK1 (h)) [%] | inhibition at 10 µM (Src kinase (h)) [%] | inhibition at 10 µM (FGFR4 kinase (h)) [%] | inhibition at 10 µM (p38delta kinase (h)) [%] | inhibition at 10 µM (EphB4 kinase (h)) [%] | inhibition at 10 µM (PhKgamma 2 (h)) [%] | inhibition at 10 µM (DYRK1a (h)) [%] | inhibition at 10 µM (GRK3/BARK2 (h) (ADRBK2)) [%] | inhibition at 10 µM (NEK7 (h)) [%] | inhibition at 10 µM (ERK2 (h) (P42mapk)) [%] | Structure (SMILES) | also measured
1 | 0 | 8 | 2 | 12 | 2 | 8 | 0 | 0 | 3 | 1 | 15 | 6 | 0 | 0 | 17 | 1 | 56 | 0 | 0 | 46 | COCCN1CCC(CNC(=O)c2n[nH]c3ccc(OC)cc23)CC1 [Compound 2, 5-methoxy-N-{[1-(2-methoxyethyl)-piperidin-4-yl]methyl}-1H-indazole-3-carboxamide] | inhibition at 10 µM (NEK1 (h)): 0%; inhibition at 10 µM (MSK1 (h)): 16%; inhibition at 10 µM (GSK3beta (h)): 90%; inhibition at 10 µM (smMLCK (h) (MYLK)): 8%; inhibition at 10 µM (mTOR kinase (h) (FRAP1)): 2%; inhibition at 10 µM (human GSK-3β): 85%; IC50 (human GSK-3β): 870 nM; inhibition at 10 µM (MEK1/MAP2K1 (h)): 9%; inhibition at 10 µM (p38gamma kinase (h)): 0%
2 | 17 | 0 | 0 | 47 | 17 | 0 | 1 | 0 | 0 | 10 | 66 | 0 | 2 | 18 | 0 | 0 | 99 | 8 | 0 | 74 | COCCN1CCC(CNC(=O)c2n[nH]c3ccc(-c4cccc(F)c4F)cc23)CC1 [Compound 8, 5-(2,3-difluorophenyl)-N-{[1-(2-methoxyethyl)piperidin-4-yl]methyl}-1H-indazole-3-carboxamide] | –
3 | 0 | 0 | 0 | 3 | 12 | 0 | 0 | 2 | 0 | 4 | 19 | 0 | 0 | 0 | 0 | 1 | 51 | 0 | 2 | 34 | COc1ccc2[nH]nc(C(=O)NCC3CCN(CCC(=O)O)CC3)c2c1 [Compound 3] | inhibition at 10 µM (GSK3beta (h)): 89%; inhibition at 10 µM (human GSK-3β): 94%
4 | 0 | 5 | 0 | 22 | 0 | 0 | 0 | 3 | 0 | 7 | 20 | 1 | 0 | 0 | 2 | 30 | 76 | 0 | 0 | 58 | COc1ccc2[nH]nc(C(=O)NCC3CCN(CC(=O)O)CC3)c2c1 [Compound 1, [4-({[(5-methoxy-1H-indazol-3-yl)-carbonyl]amino}methyl)piperidin-1-yl]acetic acid] | inhibition at 10 µM (NEK1 (h)): 0%; inhibition at 10 µM (MSK1 (h)): 7%; inhibition at 10 µM (GSK3beta (h)): 94%; inhibition at 10 µM (smMLCK (h) (MYLK)): 0%; inhibition at 10 µM (mTOR kinase (h) (FRAP1)): 2%; inhibition at 10 µM (human GSK-3β): 92%; IC50 (human GSK-3β): 670 nM; inhibition at 10 µM (MEK1/MAP2K1 (h)): 24%; inhibition at 10 µM (p38gamma kinase (h)): 0%
